Assay results reported in patent US6706740B2, “Fungicidal heterocyclic aromatic amides and their compositions, methods of use and preparation” (Dow AgroSciences LLC, priority 1999, dated 2004).

Assays:
[1] = test system: Magnaporthe grisea (Pyricularia oryzae—PYRIOR); test: microbe, parasite or virus in culture; type: cell-based; conditions: Pyricularia oryzae, read-out: PYRIOR in vitro Growth Inhibition
[2] = test system: Rhizoctonia solani (RHIZSO); test: microbe, parasite or virus in culture; type: cell-based; conditions: Rhizoctonia solani, read-out: RHIZSO in vitro Growth Inhibition
[3] = test system: Mycosphaerella graminicola (Septoria tritici—SEPTTR); test: In vitro fungal growth inhibition, Mycosphaerella graminicola (SEPTTR); type: cell-based; conditions: Zymoseptoria tritici; 25 ppm in the growth medium; read-out: SEPTTR in vitro Growth Inhibition
[4] = test system: Stagonospora nodorum (Leptosphaeria nodorum—LEPTNO); test: In vitro fungal growth inhibition, Stagonospora nodorum (LEPTNO); type: cell-based; conditions: Leptosphaeria; 25 ppm in the growth medium; read-out: LEPTNO in vitro Growth Inhibition
[5] = test system: Ustilago maydis (USTIMA); test: microbe, parasite or virus in culture; type: cell-based; conditions: Mycosarcoma maydis, read-out: USTIMA in vitro Growth Inhibition
[6] = test system: Phytophthora infestans (PHYTIN); test: microbe, parasite or virus in culture; type: cell-based; conditions: Phytophthora infestans, read-out: PHYTIN in vitro Growth Inhibition
[7] = test system: Phytophthora infestans—PHYTIN; test: whole plant or invertebrate; type: in vivo; conditions: Phytophthora, in Solanum lycopersicum, 24 h, read-out: PHYTIN in vivo 1 Day Protectant
[8] = test system: Puccinia recondita—PUCCRT; test: Brown Rust of Wheat, in vivo whole plant, 24 Hour Protectant; conditions: Puccinia; wheat plants sprayed at 100 ppm, inoculated after 24 hours; control of fungal infection vs untreated plants; read-out: PUCCRT in vivo 1 Day Protectant
[9] = test system: Erysiphe graminis—ERYSGT; test: Powdery Mildew of Wheat, in vivo whole plant, 24 Hour Protectant; conditions: Erysiphe; wheat plants sprayed at 100 ppm, inoculated after 24 hours; control of fungal infection vs untreated plants; read-out: ERYSGT in vivo 1 Day Protectant
[10] = test system: Septoria tritici—SEPTTR; test: Leaf Blotch of Wheat, in vivo whole plant, 24 Hour Protectant; conditions: Zymoseptoria tritici, 24 h, wheat plants sprayed at 100 ppm, inoculated after 24 hours; control of fungal infection vs untreated plants; read-out: SEPTTR in vivo 1 Day Protectant
[11] = test system: Leptosphaeria nodorum—LEPTNO; test: Glume Blotch of Wheat, in vivo whole plant, 24 Hour Protectant; conditions: wheat plants sprayed at 100 ppm, inoculated after 24 hours, control of fungal infection vs untreated plants; for pest or weed control at 100 ppm: Leptosphaeria, read-out: LEPTNO in vivo 1 Day Protectant

Row | Compound | inhibition at 25 ppm [1] | inhibition at 25 ppm [2] | inhibition at 25 ppm [3] | inhibition at 25 ppm [4] | inhibition at 25 ppm [5] | inhibition at 25 ppm [6] | pest or weed control at 100 ppm [7] | pest or weed control at 100 ppm [8] | pest or weed control at 100 ppm [9] | pest or weed control at 100 ppm [10] | pest or weed control at 100 ppm [11] | melting point | LEPTNO in vivo 1 Day Protectant [11]
1 | Cc1nc(O)c(C(=O)N[C@H]2COC(=O)[C@H](Cc3ccccc3)[C@@H](OC(=O)C(C)C)[C@H](C)OC2=O)cc1Cl [Compound 531] | < 80% | < 80% | < 80% | < 80% | < 80% | < 80% | < 25% | < 25% | 25 to 74% | 25 to 74% | 25 to 74% | 103 to 108 °C | –
2 | CC(C)C(=O)O[C@H]1[C@H](C)OC(=O)[C@@H](NC(=O)c2nnccc2O)COC(=O)[C@@H]1Cc1ccccc1 [Compound 532] | < 80% | < 80% | < 80% | < 80% | < 80% | < 80% | 25 to 74% | 25 to 74% | 25 to 74% | 25 to 74% | 25 to 74% | 233 °C (dec.) | –
3 | CC1(C)CC(NC(=O)c2nccnc2O)CC(C)(C)C1 [Compound 533] | < 80% | < 80% | < 80% | < 80% | < 80% | < 80% | 25 to 74% | 25 to 74% | < 25% | 25 to 74% | 25 to 74% | 248 to 250 °C (dec.) | –
4 | O=C(Nc1ccc(Oc2cccc(C(F)(F)F)c2)cc1)c1nccnc1O [Compound 535] | < 80% | > 80% | < 80% | < 80% | < 80% | < 80% | < 25% | 25 to 74% | < 25% | 25 to 74% | 25 to 74% | 239 to 243 °C (dec.) | –
5 | Cc1nc(O)c(C(=O)N[C@H]2COC(=O)[C@H](Cc3ccccc3)[C@@H](OC(=O)C(C)C)[C@H](C)OC2=O)nc1C [Compound 536] | < 80% | < 80% | > 80% | < 80% | < 80% | < 80% | < 25% | 25 to 74% | < 25% | 25 to 74% | – | 80 to 83 °C | + +
6 | COc1nc(O)c(C(=O)N[C@H]2COC(=O)[C@H](Cc3ccccc3)[C@@H](OC(=O)C(C)C)[C@H](C)OC2=O)nc1Cl [Compound 537] | < 80% | < 80% | < 80% | < 80% | < 80% | < 80% | < 25% | 25 to 74% | < 25% | 25 to 74% | – | 84 to 86 °C | + +
7 | CC(C)C(=O)O[C@H]1[C@H](C)OC(=O)[C@@H](NC(=O)c2nc(Cl)c(Cl)nc2O)COC(=O)[C@@H]1Cc1ccccc1 [Compound 538] | < 80% | < 80% | < 80% | < 80% | < 80% | < 80% | < 25% | 25 to 74% | < 25% | 25 to 74% | 25 to 74% | 108 to 110 °C | –
8 | CC1(C)CC(NC(=O)c2cncnc2O)CC(C)(C)C1 [Compound 539] | < 80% | < 80% | > 80% | < 80% | < 80% | < 80% | < 25% | 25 to 74% | < 25% | 25 to 74% | 25 to 74% | 263 to 265 °C | –
